In patent US5886178A, “3-aroylbenzylpyridazinone derivatives” (Syntex (U.S.A.) Inc., priority 1997, dated 1999):

Experiments:
[1] = test system: prostaglandin E2 synthesis; assay: Inhibition of eicosanoid (PGE2) synthesis in vivo, carrageenan air-pouch model in rats; set-up: species or system rat; conditions: 10 mg/Kg, oral, male rats
Experimental: In this assay, an air-pouch is created in the rat and the PGE2 levels in the air-pouch exudate are measured by enzyme immunoassay. Briefly, male rats were anesthetized using a 60:40 CO2 :O2 mixture and subsequently injected subcutaneously with 20 ml of sterilized air, under aseptic conditions, in the proximal area of the dorsum. This injection of sterile air causes the creation of a subcutaneous "air pouch". The next day, a further 10 ml of sterile air was injected into the previously formed pouch using the same technique. […] Control rats received vehicle alone. After 30 minutes, 5 ml of a 0.5% solution of carrageenan (Sigma, Lambda Type IV) was injected into the air pouch. The rats were euthanized 3 hr after the compound administration. […] The total exudate volume was recorded, and the samples were analyzed for PGE2 and 6-keto PGF1 by ELISA (Titerzyme®, PerSeptive Diagnostics) and TxB2 by radioimmuno assay (New England Nuclear Research, Catalog No. NEK-037), according to the manufacturer's directions.
The mean concentrations of PGE2 were calculated for each group. The anti-inflammatory activity of test materials is expressed as the percent inhibition of PGE2 formation in the test group relative to the control group.

COX I = COX I (Homo sapiens, UniProt P23219); assay: Inhibition of COX I in a cell based assay (human promonocytic THP cells, TXB2 ELISA); set-up: endogenous in cells; host or cells: human promonocytic THP cells, PMA-treated
Chain of COX I (P23219 24-599): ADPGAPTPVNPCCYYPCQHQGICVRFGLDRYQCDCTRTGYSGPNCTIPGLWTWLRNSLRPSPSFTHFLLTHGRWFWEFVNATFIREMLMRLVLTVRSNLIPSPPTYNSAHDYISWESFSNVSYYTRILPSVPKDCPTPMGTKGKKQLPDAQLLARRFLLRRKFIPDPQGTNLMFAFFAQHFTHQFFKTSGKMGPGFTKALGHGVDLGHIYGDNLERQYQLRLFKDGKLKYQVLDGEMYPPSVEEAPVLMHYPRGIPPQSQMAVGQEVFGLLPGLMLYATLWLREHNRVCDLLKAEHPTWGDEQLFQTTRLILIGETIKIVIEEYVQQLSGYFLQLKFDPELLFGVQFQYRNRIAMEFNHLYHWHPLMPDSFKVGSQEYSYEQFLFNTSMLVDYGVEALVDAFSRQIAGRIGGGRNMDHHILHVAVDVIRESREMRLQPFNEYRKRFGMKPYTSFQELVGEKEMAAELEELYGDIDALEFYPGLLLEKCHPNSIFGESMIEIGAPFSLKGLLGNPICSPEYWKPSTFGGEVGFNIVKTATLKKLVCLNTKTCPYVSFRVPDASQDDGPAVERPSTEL
Experimental: The COX I and COX II inhibitory activity of compounds of this invention in a cell based assay was determined as described below.
The inhibitory activity of the test compounds against cell associated COX-1 was measured using human promonocytic THP cells. Cells were plated in 96-well microtiter plates at a density of 8×10^4 cells/well in RPMI-1640 medium (Gibco). COX-1 activity was initiated by incubating the cells with 0.1μM phorbol 12-myristate 13-acetate (PMA, Sigma) in dimethyl sulfoxide (DMSO, Aldrich) at 37° C. After 40-48 hours, the medium was removed, and the cells were washed twice with phosphate buffered saline (PBS, Gibco). 225 μl/well of fresh medium containing desired concentrations of the test compounds in DMSO, or the carrier vehicles (control wells), was added and the cells incubated at 37° C. for 30 minutes; after which 5 μM calcium ionophore A23187 (Sigma) was added and the incubation was continued for an additional 10 minutes. The reaction was terminated by transferring the plates to ice. The culture supernatants were transferred and appropriately diluted and the amount of thromboxane B2 (TXB2) present in each supernatant was quantitated using an ELISA kit (Cayman Chemicals).
The COX I and COX II inhibitory activities in the cell based assay (expressed as IC50) of some compounds of the invention were: […]

COX II = biological target: T1, COX II (Homo sapiens, UniProt P35354); assay: Inhibition of COX II in vitro, partially purified enzyme, radiometric assay; format: biochemical; set-up: made in house; conditions: 20 micromolar arachidonic acid
T1 sequence (P35354 18-604): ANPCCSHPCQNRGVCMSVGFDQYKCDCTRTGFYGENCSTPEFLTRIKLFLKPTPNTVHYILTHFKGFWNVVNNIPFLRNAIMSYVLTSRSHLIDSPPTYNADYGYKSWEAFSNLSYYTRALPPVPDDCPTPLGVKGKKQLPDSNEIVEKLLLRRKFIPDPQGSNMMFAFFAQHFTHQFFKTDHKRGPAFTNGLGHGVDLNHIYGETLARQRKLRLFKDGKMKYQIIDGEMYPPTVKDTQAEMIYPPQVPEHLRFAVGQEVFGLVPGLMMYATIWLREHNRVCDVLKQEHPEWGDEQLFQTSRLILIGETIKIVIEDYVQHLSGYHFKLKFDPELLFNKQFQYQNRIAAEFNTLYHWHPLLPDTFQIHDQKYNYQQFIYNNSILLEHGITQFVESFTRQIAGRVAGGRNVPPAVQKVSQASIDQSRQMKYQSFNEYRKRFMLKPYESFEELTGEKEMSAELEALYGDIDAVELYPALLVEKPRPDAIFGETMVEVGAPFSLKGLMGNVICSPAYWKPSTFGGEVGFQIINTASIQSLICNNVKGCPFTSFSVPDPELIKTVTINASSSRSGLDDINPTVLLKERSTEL
Experimental: The COX I and COX II inhibitory activity of compounds of this invention in vitro was determined using partially purified COX I and COX II enzymes, prepared as described in J. Barnett et al, Biochim. Biophys.
COX I and COX II samples were diluted with Tris-HCl buffer (50 mM Tris-HCl, pH 7.9) containing 2 mM EDTA and 10% glycerol and reconstituted by incubating first with 2 mM phenol for 5 minutes and then with 1 micromolar hematin for an additional 5 minutes. 125 μl of the reconstituted COX I or COX II enzyme were preincubated for 10 minutes at room temperature in a shaking water bath with the compounds of the invention dissolved in 2-15 μl of DMSO or the carrier vehicles (control samples). The enzyme reaction was initiated by adding 25 μl of 1-[14C]arachidonic acid (80,000-100,000 cpm/tube; 20 micromolar final concentration) and the reaction was allowed to continue for an additional 45 seconds. The reaction was terminated by adding 100 μl of 2N HCl and 750 μl water. An aliquot (950 μl) of the reaction mixture was loaded onto a 1 ml C18 Sep-Pak column (J. T. Baker, Phillipsburg, N.J.) which had been previously washed with 2-3 ml methanol and equilibrated with 5-6 ml distilled water. Oxygenated products were quantitatively eluted with 3 ml of acetonitrile/water/acetic acid (50:50:0.1, v/v) and the radioactivity in the eluate determined in a scintillation counter.

[2] = Acetic Acid-induced Rat Writhing Assay (analgesic activity); format: in vivo; conditions: 10 mg/Kg, oral, male Sprague Dawley rats
Text: The analgesic activity of compounds of this invention may be determined by the Acetic Acid-induced Rat Writhing Assay, using a modification of the method described in Berkenkopf, J. W. and Weichman, B. M. "Production of Prostacyclin in Mice following Intraperitoneal Injection of Acetic Acid, Phenylbenzoquinone and Zymosan: Its Role in the Writhing Response". Prostaglandins: 36: 693-70 (1988). This assay is one of several acute assays which have been used to assess the analgesic activity of NSAIDs, and is considered predictive of human efficacy. The test materials were administered orally to male Sprague Dawley rats in a volume of 1 ml/100 g body weight as solutions or suspensions in an aqueous vehicle containing 0.9% NaCl, 0.5% sodium carboxymethyl-cellulose, 0.4% polysorbate 80, 0.9% benzyl alcohol and 97.3% water. Control rats received vehicle alone. One hour after compound administration, 0.3 ml/100 g body weight of 0.75% solution of acetic acid was injected intraperitoneally. The acetic acid injection induces a series of characteristic writhing responses, which were counted over the period between 15 and 30 minutes after the injection. The analgesic activity of test materials is expressed as the percentage inhibition of writhing in the test group relative to the control group.

COc1ccc(C(=O)c2cccc(Cc3ccc(=O)[nH]n3)c2C)cc1 [Cpd 11, 6-[3-(4-methoxybenzoyl)-2-methylbenzyl]-2H-pyridazin-3-one]
% inhibition of air pouch PGE2 formation [1]: 80%
IC50 (COX I): 4.8 µM
IC50 (COX II): 1.8 µM
% inhibition of writhing responses [2]: 10%
